Where “and” joins values, the source holds several entries; their conditions need not be identical. Equal entries are not always repeated.
Tests used:
Female Hla:(SD) BR rats = assay: Adjuvant-Induced Arthritis Assay "AI"; type: in vivo, rat; conditions: oral, day 18, vs control animals
Method: Anti-inflammatory activity is determined by the Adjuvant-Induced Arthritis ("AI") Assay, as is well accepted in the art. A modification of the assay described by Pearson, et al., supra., is performed as follows:
Female Hla:(SD) BR rats weighting 160-180 g are randomly distributed to treatment groups of 12 animals, and given food and water ad libitum. Test materials are prepared fresh weekly as suspensions in carboxymethyl cellulose. The test animals are orally dosed with the suspensions in volumes of 1 ml twice per day Monday through Friday, and with 2 ml once per day on Saturdays and Sundays. […] At time 0, rats are injected intradermally in the proximal quarter of the tail with 0.1 ml of a mineral oil suspension of heat-killed Mycobacterium butyricum (Difco) at a concentration of 10 mg/ml. On day 18 the intensity of swelling in the four paws and tail is estimated visually and scored (0-4 for paws, 0-3 for tail) such that the total maximum score, indicating intense swelling of all four paws and tail, is 19. The animals are then sacrificed; the hind paws of each animal are removed and weighed. The percent inhibition is calculated by comparing the weight increase of the hind paws of the test animals versus the control animals.
The "AI" assay, as described in Example 29, was performed using 3-(3,5-di-t-butyl-4-hydroxybenzoyl)pyrrole (prepared according to Example 2) as the test material.

mice = assay: Arachidonic Acid-Induced Mouse Ear Edema Assay "AAI"; type: in vivo; conditions: topical in acetone
Method: Topical anti-inflammatory activity is determined by the Arachidonic Acid-Induced Mouse Ear Edema "AAI" Assay, as is well accepted in the art. A modification of the assay described by Young, et al., supra., is performed as follows:
The test materials are prepared as solutions in acetone and applied to the right ears of mice, in groups of eight (8), at hour 0. At hour 1, 2 mg of arachidonic acid in acetone solution is applied to the right ears of the mice to induce an inflammatory response. The left ears of these animals serves as negative controls. At hour 2 the mice are sacrificed; their ears are removed and 8 mm diameter full thickness plugs are cut from the tip of each ear. The plugs are weighed and the mean right and left plug weights are calculated for each group. The results are expressed as percent inhibition of ear plug weight increase relative to a positive control group receiving only acetone at hour 0.

[1] = as reported by Isomura, et al., Chem. Pharm. Bull., 32(1): 152-165 (1984); cited from earlier work

Compound | inhibition of hind paw weight increase (Female Hla:(SD) BR rats; daily dose 0.4 mg/kg of body weight) | inhibition of hind paw weight increase (Female Hla:(SD) BR rats; daily dose 2.0 mg/kg of body weight) | Inhibition (AAI) of ear plug weight increase (mice; dose 0.5 mg/ear) | Inhibition (AAI) of ear plug weight increase (mice; dose 1.0 mg/ear) | Inhibition (AAI) of ear plug weight increase (mice; dose 2.0 mg/ear) | anti-inflammatory activity [1]
CC(C)(C)c1cc(C(=O)c2cc[nH]c2)cc(C(C)(C)C)c1O [A, 3-(3,5-di-t-butyl-4-hydroxybenzoyl)pyrrole] | 54% | 70% | 49% | 62% | 67% and 69% | –
CC(C)(C)c1cc(C(=O)c2ccc[nH]2)cc(C(C)(C)C)c1O [B, 2-(3,5-di-t-butyl-4-hydroxybenzoyl)pyrrole, reference compound] | – | – | – | – | 22% | –
Cc1[nH]ccc1-c1cc(C(C)(C)C)c(O)c(C(C)(C)C)c1 [Formula VIII] | – | – | – | – | – | inactive
